Each block holds one compound with its values, some of them ahead of it.
Experiments:
STHdh^Q111/111 cells [1] = assay: Toxicity assay: rescue from tunicamycin (ER stress)-induced apoptosis, FACS with propidium iodide (sub-G0/G1); assay type: cell-based, murine; details: 0–100 μM, 48 h Tun exposure (Fig. 1C)
Description: (§1) STHdh^Q111/111 cells (used before[13]) or PERK+/+ or PERK−/− MEFs (kindly provided by David Ron, Univ. Cambridge) were incubated with Tun (10 μg/ml) for 48 h, which results in ER stress-induced cell death. Cells under the same conditions were incubated for the same times, together with Tun, with increasing concentrations of the different PERK modulators (0–120 μM) and the percent of apoptotic cells was measured by FACS cell cycle progression using propidium iodide (PI), considering the fraction beneath G0/G1. The relative apoptosis rate was calculated to be able to compare between compounds and experiments, where for each concentration curve the percent of apoptotic cells was considered 100 at concentration 0 of the PERK modulator, with only Tun. The graphs show the average relative apoptosis rate of at least 3 independent experiments for each compound.
Cells were washed with PBS and fixed with cold methanol. Before FACS analysis cells were washed with PBS, followed by addition of propidium iodide (PI) solution (10 μg/ml) and analysis by flow cytometry. Cells in sub-G0/G1 were counted as apoptotic/ dead.

STHdh^Q111/111 cells [2] = assay: Apoptosis of STHdh^Q111/111 cells with the NRF2 inhibitor ML385; assay type: cell-based, murine
Description: as §1
Suppl. Fig. S5. NRF2 activation but not involvement in cell protection by MK-28. A)
Scheme of NRF2 activation by PERK. B) qPCR of HMOX1, a downstream target of NR F2.
Medians +- interquartile range of 3 independent experiments . P values of STHdhQ7/7 MK 5µM […]
presence of Tun and the indicated concentrations of MK-28, plus increasing concentrations of the NRF2 inhibitor ML385. Average of 3 independent experiments +-SD. D) Apoptosis of STHdhQ111/111 cells treated only with increasing concentrations of ML385. […]

panel of 391 kinases [3] = molecular target: panel of 391 kinases (Homo sapiens, UniProt Q96QT4); assay: biochemical; assay type: biochemical; details: kinase TRPM7/CHAK1; 10-dose IC50 mode; 1 µM ATP; read-out: Control Compound IC50
panel of 391 kinases [4] = molecular target: panel of 391 kinases (Homo sapiens, UniProt Q8TDX7); assay: biochemical; assay type: biochemical; details: NEK7; ATP 1 µM; read-out: Control Compound IC50
panel of 391 kinases [5] = molecular target: panel of 391 kinases (Homo sapiens, UniProt Q9HC98); assay: biochemical; assay type: biochemical; details: NEK6; ATP 1 µM; read-out: Control Compound IC50
panel of 391 kinases [6] = molecular target: panel of 391 kinases (Homo sapiens, UniProt P27361); assay: biochemical; assay type: biochemical; details: ERK1; ATP 1 µM; read-out: Control Compound IC50
PERK-P = assay: PERK phosphorylation shift by immunoblot in MEF cells; assay type: cell-based; details: 3 hours, Thap 2 μg/ml
panel of 391 kinases [7] = molecular target: panel of 391 kinases (Homo sapiens, UniProt Q9BYP7); assay: biochemical; assay type: biochemical; details: WNK3; ATP 1 µM; read-out: Control Compound IC50

SMILES: COc1ccc(/C=N\N(C)c2nc(-c3ccccc3)cc(-c3ccccc3)n2)cc1O [MK-29]
rescue from ER stress-induced apoptosis (STHdh^Q111/111 cells [1]): inactive

SMILES: COc1cc(/C=N\N(C)c2nc(-c3ccccc3)cc(-c3ccccc3)n2)cc(OC)c1O [MK-30]
rescue from ER stress-induced apoptosis (STHdh^Q111/111 cells [1]): inactive

SMILES: Cc1ccccc1C(=O)N1CCc2cc(-c3nc(NC(=O)Cc4ccc5c(c4)OCO5)sc3C)ccc21 [ML385]
reversal of the cytoprotective effect of MK-28 (STHdh^Q111/111 cells [2]; Tun + MK-28 + increasing ML385): did not reverse to any significant extent
toxicity (apoptosis) of ML385 (STHdh^Q111/111 cells [2]; increasing concentrations): caused some toxicity

IC50 (panel of 391 kinases [3]): 11 µM
SMILES: CCCCCCCCCCCCCCCCn1cc[n+](Cc2ccccc2)c1C [NH125]

SMILES: O=C1Nc2ccc3ncsc3c2/C1=C/c1cnc[nH]1 [PKR Inhibitor]
IC50 (panel of 391 kinases [4]): 14.8 µM
IC50 (panel of 391 kinases [5]): 5.69 µM

IC50 (panel of 391 kinases [6]): 0.0126 µM
SMILES: O=C(Nc1ccc2[nH]nc(-c3ccncc3)c2c1)[C@@H]1CCN(CC(=O)N2CCN(c3ccc(-c4ncccn4)cc3)CC2)C1 [SCH772984]

SMILES: C/C=C(/C)C(=O)O[C@H]1C(C)=C2[C@H]([C@@H]1OC(=O)CCCCCCC)[C@@](C)(OC(C)=O)C[C@H](OC(=O)CCC)[C@@]1(O)[C@H]2OC(=O)[C@@]1(C)O [Thap, thapsigargin, reference compound]
PERK migration shift (PERK-P) (PERK-P): shift of PERK consistent with its phosphorylation

IC50 (panel of 391 kinases [7]): 1.91 µM
SMILES: O=C1NC(=O)c2c1c(-c1ccccc1Cl)cc1[nH]c3ccc(O)cc3c21 [Wee-1 Inhibitor]

From article PMC7181660, “A novel specific PERK activator reduces toxicity and extends survival in Huntington's disease models” (Scientific Reports, 2020)
